The values that follow come from the METLIN SMRT retention time set (Domingo-Almenara et al. 2019).

The structures appear in SMILES notation.

This data set is described as follows: gradient 5% acetonitrile 3 min, to 50% in 2 min, to 85% in 15 min, held 3 min, 100 µL/min. Conditions: column: Zorbax Extend-C18 2.1 x 50 mm; eluents: water / acetonitrile, 0.1% formic acid. A digest of the protocol:
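Data were gathered over 3 months by HPLC coupled to a quadrupole time-of-flight mass spectrometer, operated in positive and negative ionization mode. Mixtures of ~100 pure standards ran on a Zorbax Extend-C18 column (2.1 × 50 mm, 1.8 μm) at 100 μL/min, with water and acetonitrile each containing 0.1% formic acid and dead and dwell volumes of 40 μL and 900 μL. Retention time was read from adduct peaks picked by computer and checked manually.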
`C=Cc1ccc(Cn2cc(S(=O)(=O)N3CCOCC3)ccc2=O)cc1`: the RP-LC retention time is 825 s.
In turn, `CC(C)c1noc(-c2cc(=O)n(CC(=O)Nc3ccccc3F)c3ccccc23)n1` showed an RP-LC retention time of 984 s.
Regarding `COc1ccc2c(c1O)[C@]13CCN(C)[C@H](C2)[C@@H]1CCC(=O)C3`, the RP-LC retention time worked out at 622 s.
`O=C(c1cc(Cc2n[nH]c(=O)c3ccccc23)ccc1F)N1CCN(C(=O)C2CC2)CC1`: the RP-LC retention time turned out to be 717 s.
Compound `COc1ccc(CNC(=O)C(C)n2sc3ccccc3c2=O)cc1OC` (stereo not drawn) gave an RP-LC retention time of 848 s.
The value for `CCc1cccc(C)c1NC(=O)Cn1c(=O)n(-c2ccc(F)cc2)c(=O)c2c1cc(C)n2C` was 850 s.
The compound `CCOc1ccccc1NS(=O)(=O)c1cc(-c2nc(C(C)(C)C)cs2)cs1` registered an RP-LC retention time of 1310 s.
As for `CC1=NS(=O)(=O)N(Cc2ccccc2)C=C1C(=O)OCc1ccc(F)cc1`, the figure is 1080 s; as for `CCOC(=O)c1cccc(Nc2c(-c3ccc(C(=O)O)cc3)nc3cnccn23)c1`, 726 s.
The compound `Cc1ccc2c(Nc3ccc(C)c(F)c3)c(C(=O)N3CCOCC3)cnc2n1` came in with an RP-LC retention time of 599 s.
Compound `Cc1cc(=O)c2cc(C(=O)c3ccccc3)ccc2[nH]1` registered an RP-LC retention time of 718 s.
`CCc1nnc(NC(=O)c2c[nH]c3c(Cl)cccc3c2=O)s1`: the RP-LC retention time is 693 s.
As for `CCOc1cccc(-c2noc(Cn3ccn(-c4ccccc4C)c(=O)c3=O)n2)c1`, the figure is 911 s; as for `CC(=O)Nc1ccc(-n2cnc(C(=O)NCc3ccccc3F)c2)nc1`, 663 s; as for `CCN(CC)S(=O)(=O)c1cccc(-c2nnc(-c3cccc(C)c3)o2)c1`, 1120 s.
`COc1c(C(=O)Nc2ccc3c(c2)OCO3)sc2ccc(Cl)cc12` gave an RP-LC retention time of 1180 s.
In turn, `Cc1ccc(-c2ccc(-n3nc(C)c(S(=O)(=O)N4CCOCC4)c3C)nn2)cc1C` came in with an RP-LC retention time of 1060 s.
Regarding `Cc1ccc(NC(=O)Cn2nc(C)cc2C(=O)Nc2ccc3c(c2)OCO3)cc1`, the RP-LC retention time is 866 s.
`O=C(N[C@H]1C[C@@H]2C[C@H]1N(C(=O)c1ccccc1OC(F)(F)F)C2)c1cccnc1`: the RP-LC retention time stood at 641 s.
The compound `Cc1nc(-c2ccc(-c3noc(C(C)Oc4ccccc4)n3)cc2)cs1` (stereo not drawn) gave an RP-LC retention time of 1210 s.
With `COc1ccc(OC)c(NC(=O)C(=O)c2cccn2C)c1`, the RP-LC retention time worked out at 1000 s.
For the compound `Cc1sc(-c2nc(C(C)C)cs2)cc1S(=O)(=O)NCc1ccc2c(c1)OCO2`, the RP-LC retention time was determined as 1130 s.
The value for `COc1cc(CCNCc2c(C(=O)O)n(C)c3ccccc23)cc(OC)c1OC` was 656 s.
The value for `Cc1cc(C)c2c(N3CCCC3)nc(C(=O)NCc3cccnc3)nc2n1` was 537 s; that for `COc1cc2nc(C(=O)N3CCCCC3)cc(Nc3ccc(F)c(Cl)c3)c2cc1OC` was 735 s.
Regarding `CN1CCC2(CC1)CN(C(=O)Cn1c(=O)oc3ccccc31)Cc1ccccc1O2`, the RP-LC retention time worked out at 644 s.
`O=C(Nc1ccc(F)cc1)c1nnc(CSCC(=O)N2CCN(c3ccccn3)CC2)s1` yielded an RP-LC retention time of 657 s.
`CCN1CCN(C(=O)C2CCc3sc(C(=O)N4CCCCC4)cc3C2)CC1` (stereo not drawn) displayed an RP-LC retention time of 613 s.
For the compound `COc1ccc(OCc2noc(CNC(=O)CSc3nc4ccccc4o3)n2)cc1`, the RP-LC retention time was determined as 806 s.
For `Cc1ccc(-c2nnc(Cc3nc(-c4ccccc4C)no3)o2)cc1C`, the RP-LC retention time came out at 842 s.
`COCc1nc(C2CCN(C(=O)C3(c4ccccc4)CC3)C2)no1` (stereo not drawn) returned an RP-LC retention time of 750 s.
Take `CC(C)Cn1c(=O)c2ccccc2n(Cc2nc(-c3ccc(Br)cc3)no2)c1=O`: the RP-LC retention time came out at 1300 s.
`CC(C)N1CCC(c2nnc3n2CCN(S(=O)(=O)c2ccccc2Cl)C3)C1` (stereo not drawn) gave an RP-LC retention time of 599 s.
As for `O=C(COc1ccc(F)cc1)Nc1ccc(-c2nc(-c3ccc(F)cc3)no2)cc1`, the figure is 1220 s; as for `COc1cc(OC)c(NC(=O)c2cnn(-c3ccccc3)c2)cc1Cl`, 944 s; as for `COc1ccc(NC(=O)N2CCC(N3C[C@H]4C[C@H](C3)[C@H]3CCCC(=O)N3C4)CC2)cc1OC`, 611 s.
As to `CN(C)CCN(Cc1ccco1)C(=O)c1c2c(nc3ccccc13)C(=O)N(C1CCCCC1)C2`, the RP-LC retention time turned out to be 581 s.
The value for `COc1cc(OC)cc(N2C(=O)C3N=NN(Cc4nc(-c5cccc(Cl)c5)no4)C3C2=O)c1` (stereo not drawn) was 1020 s; that for `CN(CCNC(=O)c1ccc2c(c1)NC(=O)C1CCCCN21)C1CCCCC1` (stereo not drawn) was 630 s.
In the case of `CCOc1ccc(NS(=O)(=O)c2ccc(-c3nnc(C4CCC4)o3)o2)cc1`, the RP-LC retention time came to 922 s.
Regarding `COCC(=O)N1CCCn2nc(-c3ccccc3)cc2C1`, the RP-LC retention time is 669 s.
In turn, `CCn1cccc1-c1nc(C)c(C(=O)NCCc2ccc(OC)c(OC)c2)s1` came in with an RP-LC retention time of 998 s.
With `COc1cc(NC(=O)N2CCCC2c2cccc(F)c2)cc(OC)c1OC` (stereo not drawn), the RP-LC retention time turned out to be 848 s.
In turn, `Nc1ncnc2c1nnn2C1OC(CO)C(O)C1O` (stereo not drawn) showed an RP-LC retention time of 513 s.
As for `O=C(C1CCN(c2ncnc3c2oc2ccccc23)CC1)N1CCN(c2ccccc2)CC1`, the figure is 795 s; as for `CCCN1C(=O)C(NC(=O)c2ccccc2OC)(C(F)(F)F)C(C(=O)OC)=C1C` (stereo not drawn), 935 s.
The compound `O=C(CCc1cn(-c2ccccc2)nc1-c1ccc2c(c1)OCO2)NCCCN1CCOCC1` gave an RP-LC retention time of 681 s.
In the case of `COc1ccc(OC)c(NC(=O)c2c(OC)cc(=O)n3c2CCCC3)c1`, the RP-LC retention time is 695 s.
Compound `O=C(NC1CC1)c1ccc(N2CCC(NCc3ccc(F)cc3)C2)nc1` (stereo not drawn) showed an RP-LC retention time of 553 s.
As to `Cc1oc(-c2ccc(NC(=O)Cc3ccc(Cl)cc3)cc2)nc1Cn1cccn1`, the RP-LC retention time amounted to 941 s.
With `O=c1[nH]cc(S(=O)(=O)N2CCCC2)c(=O)[nH]1`, the RP-LC retention time came out at 568 s.
`CCCc1c(C(=O)O)nnn1Cc1ccc(OC)cc1`: the RP-LC retention time was found to be 710 s.
`CCOC(=O)C1CCN(C(=O)C2CCCN(c3nc4cccnc4n(CC)c3=O)C2)CC1` (stereo not drawn): the RP-LC retention time was determined as 969 s.
Turning to `COc1ccccc1N1CCN(C(=O)CC(C)S(=O)(=O)c2ccc3c(c2)CCN3C(C)=O)CC1` (stereo not drawn), the RP-LC retention time stood at 754 s.
`O=C(c1ccc(OCC2CCN(C(=O)C3CCCC3)CC2)cc1)N1CCOCC1`: the RP-LC retention time turned out to be 764 s.
Compound `COc1ccc2[nH]c3c(c2c1)CCN1C(=O)N(c2ccc(Cl)c(Cl)c2)C(=O)C31C` (stereo not drawn) yielded an RP-LC retention time of 1120 s.
Take `O=C(Nc1ccc(F)c(Cl)c1)N1CCCC(Cn2c(C3CC3)nc3cccnc32)C1` (stereo not drawn): the RP-LC retention time was 744 s.
With `CCOC(=O)c1noc2nc(C)nc(N3CCN(c4ccccc4F)CC3)c12`, the RP-LC retention time stood at 1070 s.
